In data set [1] the target is T1, CDK4/cyclin D1 kinase complex (Homo sapiens, UniProt P11802).
T1 construct: HA (Hemagglutinin tag) (C); made in house; host or cells: Sf9 insect cells (baculovirus co-infection)
Put plainly: CDK4/cyclinD1 Flashplate assay in 96-well format. To be noted: read-out: IC 50 CDK4. Type of data set: biochemical. How it is done: Purification of the CDK4-HA/cyclin D1-(His)6 complex by IMAC (Immobilized Metal Affinity Chromatography):
Two recombinant baculoviruses carrying the human sequences coding respectively for CDK4-HA (C-terminal fusion with the Hemagglutinin tag) and for cyclin D1-(His)6 are used to co-infect Sf9 insect cells. Sixty hours after the beginning of co-infection, the cells are harvested by centrifugation and then frozen at −20° C. until their use. After thawing in buffer A (HEPES 200 mM pH 7.0, NaCl 50 mM, MgCl2 2 mM, imidazole 25 mM, TCEP 1 mM, glycerol 10% (w/v), NaF 1 mM, Na3VO4 1 mM), stirring at 4° C. for 1 h, and centrifugation, the complex present in the lysis supernatant is purified by affinity chromatography on nickel (IMAC) and stored at −80° C.
CDK4/cyclinD1 Flashplate Assay in 96-Well Format.
An assay in 96-well “Flashplate” (scintillation plate) plates coated with streptavidin is used to evaluate the inhibition of the CDK4/cyclin D1 kinase complex by the products of the invention. To perform this test, the biotinylated peptide substrate, a fragment of the pRb protein, (biotinyl-[…]-amide), is dissolved at a concentration of 2 mM in kinase buffer (HEPES/NaOH 50 mM, NaCl 1 mM, MgCl2 5 mM, pH=7.5) to form a stock solution, which is stored at −20° C. in the form of 110 μl aliquots. On the day of the experiment, an aliquot of this solution is thawed and diluted in kinase buffer containing 1 mM of dithiothreitol, added at the time of use, so as to give a final peptide concentration of 2.571 μM. seventy μl of this solution are deposited in each well of the Flashplate plate, to give a final substrate concentration of 1.8 μM during the enzymatic reaction, which is performed in a final volume of 100 μl (cf. below). Intermediate dilutions of inhibitors (products of the invention) at various concentrations are prepared in DMSO from 10 mM stock solutions in separate tubes. In this way dilutions at 1000 μM, 333.3 μM, 111.1 μM, 37.03 μM, 12.35 μM, 4.11 μM and 1.37 μM are produced. One μl of each of these solutions (or 1 μl of DMSO for the controls) is subsequently transferred into the wells of the assay plate. To each well there is subsequently added 19 μl of a solution of a mixture of adenosine triphosphate (ATP) and ATPγ^33P in the kinase buffer at a concentration of 5.26 μM of total ATP and 78.9 μCi/ml of ^33P. The enzymatic reaction is triggered by adding 10 μl per well of a solution of CDK4/cyclin D1 complex at 250 nM in the kinase buffer, containing 1 mM of dithiothreitol (or 10 μl of kinase buffer containing 1 mM of dithiothreitol for the reaction blanks). At the end of the various additions, the final volume in each well is 100 μl, the final substrate concentration is 1.8 μM, the final inhibitor concentrations are 10 μM, 3.33 μM, 1.11 μM, 0.37 μM, 0.123 μM, 0.041 μM and 0.014 μM (depending on the concentration of the intermediate dilution), the final ATP concentration is 1 μM, the final amount of ^33P is 1.5 μCi/well, and the final concentration of CDK4/cyclin D1 complex is 25 nM.
After all of the reagents have been added, the assay plate is incubated at 30° C. with orbital stirring at 650 rpm. Following incubation, the plate is washed three times with 300 μl per well of PBS buffer (phosphate buffered saline, pH=7.4 with neither calcium nor magnesium, reference 10010-015, Gibco BRL). The incorporation of ^33P into the substrate peptide is measured by scintillation counting using a Packard Topcount.NXT instrument. The inhibitory activity of the products of the invention is evaluated by determining the concentration of inhibitor resulting in a 50% reduction in the enzymatic activity (IC50).

Another data set addresses T2, human KDR enzyme (Homo sapiens, UniProt P35968).
T2 construct: The cytoplasmic domain of the human KDR enzyme was cloned in the form of a GST fusion; GST; made in house; host or cells: SF21 insect cells (baculovirus, pFastBac)
Description: KDR substrate phosphorylation assay (scintillation, 96-well plate). Type of data set: biochemical. Summed up:
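GST-fused cytoplasmic domain of human KDR (Sf21-expressed, ~60% pure; 100 ng) mixed with compound at 4 °C in MOPS buffer pH 7.2 with Mg2+/Mn2+, DTT, EGTA, vanadate, NaF. Started with 2 μg GST-PLCγ SH2-SH3, γ33P-ATP and cold ATP (2 μM in starting solution); 1 h, 37 °C, EDTA stop. Result: % inhibition vs no-compound control.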

The text below walks through data of patent US7517902B2, “Substituted indazoles, compositions containing the same, and the preparation and use thereof” (Aventis Pharma S.A., priority 2004, dated 2009).

Counter-ions that a name gives are not always drawn.

T2 sequence (P35968 786-1356 limits assumed): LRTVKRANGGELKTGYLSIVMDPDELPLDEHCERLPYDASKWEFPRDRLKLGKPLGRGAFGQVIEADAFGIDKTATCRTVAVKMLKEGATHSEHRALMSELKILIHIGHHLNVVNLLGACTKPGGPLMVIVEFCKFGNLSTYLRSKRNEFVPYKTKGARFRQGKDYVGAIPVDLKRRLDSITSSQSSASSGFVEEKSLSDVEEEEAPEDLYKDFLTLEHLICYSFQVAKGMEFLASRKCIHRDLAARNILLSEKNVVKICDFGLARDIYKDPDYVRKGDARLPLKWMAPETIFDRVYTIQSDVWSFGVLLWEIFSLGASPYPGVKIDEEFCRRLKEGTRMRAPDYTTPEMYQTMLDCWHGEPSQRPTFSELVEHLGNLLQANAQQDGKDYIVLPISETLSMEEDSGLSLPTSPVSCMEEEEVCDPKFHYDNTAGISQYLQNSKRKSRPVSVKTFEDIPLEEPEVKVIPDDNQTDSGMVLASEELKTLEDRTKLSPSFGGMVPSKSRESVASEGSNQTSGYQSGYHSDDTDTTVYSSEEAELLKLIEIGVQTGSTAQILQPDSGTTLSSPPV
T1 sequence (P11802 whole entry): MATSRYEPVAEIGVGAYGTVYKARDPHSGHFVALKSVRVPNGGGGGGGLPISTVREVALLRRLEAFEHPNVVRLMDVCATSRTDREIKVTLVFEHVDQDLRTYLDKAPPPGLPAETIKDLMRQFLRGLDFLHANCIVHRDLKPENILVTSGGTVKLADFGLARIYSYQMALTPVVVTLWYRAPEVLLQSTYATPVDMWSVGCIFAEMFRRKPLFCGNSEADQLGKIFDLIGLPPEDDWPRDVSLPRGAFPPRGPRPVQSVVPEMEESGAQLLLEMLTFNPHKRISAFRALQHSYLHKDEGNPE
T1 sequence (P24385 whole entry partner): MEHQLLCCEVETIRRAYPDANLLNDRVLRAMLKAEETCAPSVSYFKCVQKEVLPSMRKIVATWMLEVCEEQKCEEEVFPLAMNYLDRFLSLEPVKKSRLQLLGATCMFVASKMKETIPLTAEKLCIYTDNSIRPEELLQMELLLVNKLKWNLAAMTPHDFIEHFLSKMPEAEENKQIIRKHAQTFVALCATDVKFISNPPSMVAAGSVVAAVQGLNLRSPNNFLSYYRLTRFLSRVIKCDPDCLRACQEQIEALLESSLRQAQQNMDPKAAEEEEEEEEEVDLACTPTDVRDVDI

Take `Nc1n[nH]c2cc(-c3ccc(NS(=O)(=O)c4cccc(Cl)c4Cl)cc3)ccc12` [Example 2, 1-[4-(3-Amino-1H-indazol-6-yl)phenyl]-2,3-dichlorobenzenesulfonamide hydrochloride]: the IC50 in data set [1] was 132 nM.

As a reminder, the melting point is the temperature of the solid-liquid transition. For `O=C(Nc1n[nH]c2cc(-c3ccc(NS(=O)(=O)c4cccc(Cl)c4Cl)cc3)ccc12)c1ccsc1` [Example 3, 3-Thiophenecarboxylic acid {6-[4-(2,3dichlorobenzenesulfonylamino)phenyl]-1H-indazol-3-yl}amide], the melting point is 196 °C. This compound also had an IC50 on human KDR enzyme of 864 nM. Besides, in data set [1], the IC50 came to 145 nM.

For `O=C(Nc1n[nH]c2c(F)c(-c3ccc(NS(=O)(=O)c4cccc(Cl)c4Cl)cc3)ccc12)c1ccsc1` [Example 5, 3-Thiophenecarboxylic acid {6-[4-(2,3-dichlorobenzenesulfonylamino)-7-fluorophenyl]-1H-indazol-3-yl}amide], the figures for the IC50 (against human KDR enzyme; in data set [1]) were 1870 nM and 55 nM, respectively.

For the compound `Nc1n[nH]c2c(F)c(-c3ccc(NS(=O)(=O)c4cccc(Cl)c4Cl)cc3)ccc12` [Example 8, 1-[4-(3-Amino-1H-indazol-6-yl)-7-fluorophenyl]-2,3-dichlorobenzenesulfonamide hydrochloride], the IC50 at human KDR enzyme turned out to be 6590 nM; in data set [1], 117 nM.
